Experimental data as given in patent US20120021117A1, “METHOD FOR PRESERVING DRINKS” (LANXESS DEUTSCHLAND GMBH, priority 2008, published 2012).
Like-named read-outs stand apart in the source and are kept apart here.

Legend:
[1] = tested on: Lactobacillus brevis; test: Microbiological colony count determination in inoculated apple juice/water 1:1 after 24 hours; format: cell-based; settings: Cell inoculum approximately 100 cells/ml; DMDC concentration not given; duplicate
[2] = tested on: Saccharomyces cerevisiae; test: Activity of DMDC, LF and their mixtures in inoculated apple juice drink, cell count after one week; format: cell-based; settings: inoculum 375 cells/ml
Protocol: The activity of the individual components DMDC and limonene (in a formulation) and the activity of mixtures of DMDC and limonene (in a formulation) was tested against Saccharomyces cerevisiae.
For this, an apple juice drink was inoculated with 375 cells of Saccharomyces cerevisiae per ml and the active ingredient concentrations reported in Table 1 were added. In the table, DMDC is dimethyl dicarbonate, added as such.
LF was added first and then DMDC. Subsequently thereto the mixtures were thoroughly shaken and incubated at 26° C. for one week. The cell count present was then determined.

[3] = Microbiological keeping time of bottled orange juice drink without sorbate (Example 3); settings: 0.5 l PET bottles, 500 ppm limonene-containing mixture and/or 200 ppm of DMDC, visual and organoleptic inspection
From the text: The samples were thereafter regularly inspected visually and organoleptically.

[4] = orange juice drink with potassium sorbate equivalent to 100 ppm of sorbic acid, 0.5 l PET bottles; 500 ppm limonene-containing mixture and/or 200 ppm of DMDC; visual and organoleptic inspection
Protocol: Thereafter the drink was packaged directly on a drinks bottling line (10 000 l/h) into 0.5 l PET bottles.
In this case the limonene-containing mixture was added during final mixing of the drink, whereas for metering DMDC, an electromagnetic metering pump connected upstream of the filler was used.
As comparative experiment, the same drink was packaged non-preserved, or packaged treated only with DMDC or only with limonene.

| Compound | cell count determination after 24 hours [1] | efficacy, defined as freedom from cells (concentration, component alone) [2] | microbiological keeping time [3] | microbiological keeping time [4] |
| --- | --- | --- | --- | --- |
| COC(=O)OC(=O)OC [DMDC, dimethyl dicarbonate] | 54/75 | above 150 ppm | approximately 20 days | – |
| C/C=C/C=C/C(=O)O [sorbic acid] | – | – | – | approximately 6 days |
